The text below walks through data of patent US10238689B2, “Methods for combating bacterial infections by killing persister cells with mitomycin C and/or cisplatin” (THE PENN STATE RESEARCH FOUNDATION, priority 2015, dated 2019).

Converted amounts (≈) assume the structure as drawn. Like-named read-outs stand apart in the source and are kept apart here.

In assay [1] the test system is E. coli BW25113. The assay can be described thus: Validation of persisters (three rounds of the persister assay). It is filed as cell-based, Escherichia coli. To be noted: for survival rate: ciprofloxacin 5 μg/mL or ampicillin 100 μg/mL, 3 h. The protocol: Validation of persisters. To validate that the persister cells are tolerant to antibiotics, not spontaneous resistant mutants, three rounds of the persister assay were performed. Overnight (16 h) cultures of E. coli BW25113 were diluted 1:1000 with fresh buffered LB and grown to a turbidity of ˜0.8 at 600 nm. […] After the first round of antibiotic treatment, a 1 mL sample was centrifuged at 10,000 rpm for 3 min, and the cells were resuspended in 1 mL of normal saline. […] For the second and third rounds, cell suspensions were diluted 1:100 with fresh buffered LB and regrown to a turbidity of ˜0.8 at 600 nm and used for antibiotic treatment followed by the drop assay.

For assay [2], the system named is E. coli K-12. The assay can be described thus: Minimum inhibitory concentration (MIC) assay. It counts as cell-based, Escherichia coli. To be noted: Escherichia coli, K12, 16 h, lack of turbidity, read-out: MIC. The protocol:
Minimum inhibitory concentration (MIC) assay. To determine the MICs of cisplatin for E. coli K-12, enterohemorrhagic E. coli (EHEC), S. aureus, and P. aeruginosa (PAO1 and PA14), freshly inoculated cultures (at least two independent cultures) in buffered LB (TSB for S. aureus) were incubated for 16 h with varying concentrations of cisplatin, and growth inhibition was assayed by the lack of turbidity.

Assay [3] deals with EHEC infection. It counts as in vivo, Caenorhabditis elegans. To be noted: MMC 10 μg/mL, ciprofloxacin 5 μg/mL, ampicillin 100 μg/mL, 6 h exposure; four replicates.
For assay [4], the system named is E. coli K-12 cells. The assay can be described thus: Test of DNA crosslinking compounds for antimicrobial activity. It counts as cell-based, Escherichia coli. The protocol:
Stocks of cisplatin (2 mg/mL, Sigma-Aldrich, St. Louis, Mo., USA) were prepared in 0.1M NaClO4 and MMC (0.5 mg/mL, Fisher Scientific, Pittsburgh, Pa., USA) was prepared in water. Stocks of busulfan (2 mg/mL, Cayman Chemical, Ann Arbor, Mich., USA), melphalan (2 mg/mL, Cayman Chemical), dynemicin A (5 mg/mL, AdooQ, Irvine, Calif., USA), and tirapazamine (0.5 mg/mL, Sigma-Aldrich) were prepared in dimethylsulfoxide, the stock of cyclophosphamide (0.5 mg/mL, Cayman Chemical) was prepared in water, and the stock of carmustine (214 mg/mL, Enzo Life Sciences, Farmingdale, N.Y., USA) was prepared in ethanol.
In this Example we tested seven other DNA crosslinking compounds: busulfan (100 μg/mL), carmustine (100 μg/mL) cisplatin (100 μg/mL), cyclophosphamide (100 μg/mL), dynemicin A (200 μg/mL), melphalan (100 μg/mL), and tirapazamine (10 μg/mL).

Assay [5] deals with E. coli K-12. It is filed as cell-based, Escherichia coli. To be noted: late stationary phase (16 h of growth), buffered LB; cisplatin 500 μg/mL (5×MIC), ciprofloxacin 5 μg/mL (100×MIC), 8 h. The method, then:
Persister cell killing and eradication assays (planktonic cells). For the time course experiment, late stationary phase cells of E. coli K-12 (wild-type and isogenic mutants) were prepared by growing cells overnight (16 h) in LB medium buffered with 100 mM KPO4 at pH 7.0 (buffered LB). A 1 mL culture was used for a drop (10 μL×3) assay to check cell viability at 0 h (i.e., before antibiotic treatment). […] At 1 h intervals, 1 mL culture was centrifuged at 10,000 rpm for 3 min, the supernatant was discarded, the cells were resuspended in 1 mL of normal saline (0.85% NaCl), and the cell suspension was serially diluted for a drop assay to check cell viability.
To test for eradication, the wild-type E. coli K-12 cells were treated with cisplatin for 12 h, a 1 mL sample was centrifuged, the cell pellet was resuspended in 150 μL of normal saline, and the cells were spread on LB agar to check cell viability. Another 1 mL culture was diluted 1:10 with fresh buffered LB and the cells were incubated to allow any remaining cells to replicate. After 12 h, 18 h, and 24 h, 1 mL samples were centrifuged, resuspended in 150 μL of normal saline and spread on LB agar plates to check cell viability. At least two independent cultures were used.

For assay [6], the system named is E. coli K-12 BW25113 VBNC cultures. The assay can be described thus: VBNC antibiotic killing assay. It is filed as cell-based, Escherichia coli. To be noted: culturable population of VBNC cultures; MMC 10 μg/mL, ciprofloxacin 5 μg/mL, 16 h. The method, then: Overnight cultures (16 h) of E. coli K-12 BW25113 grown in LB were diluted 1:1000 in LB and grown to a turbidity of 3.0 at 600 nm. Cells were washed three times with 0.85% NaCl to remove nutrients and incubated in 0.85% NaCl for 32 days until the VBNC population was ˜1,000-fold higher than the culturable population. […] Samples (0.5 mL) were diluted 1:1 with LB to stimulate cellular respiration for 10 min prior to staining with 1 μL of 1 mM RedoxSensor™ Green dye and 1 μL of 20 mM propidium iodide. Samples were visualized in a hemocytometer (Hausser Scientific, Horsham, Pa., USA) using an Olympus BX61 confocal microscope (Olympus, Tokyo, Japan) at 200× magnification in order to determine viability of the VBNC population. Cell counting data was averaged from four images and experiment was performed with at least two independent cultures.

For assay [7], the system named is E. coli O157:H7 (EHEC). The assay can be described thus: Planktonic antibiotic killing assay. To be noted: late-stationary phase, M9-glucose; MMC 10 μg/mL, ciprofloxacin 5 μg/mL, 3 h. It is filed as cell-based, Escherichia coli. The method, then: (§1) In order to obtain exponential and mid-stationary phase cultures in LB, buffered LB or TSB, overnight cultures (16 h) were diluted 1:1000 in fresh medium and grown to the desired turbidity (i.e., a turbidity below 2 at 600 nm for exponential phase and a turbidity of 3 to 4 at 600 nm for mid-stationary phase). Late-stationary phase cultures in LB or buffered LB were obtained by growing overnight cultures (16 h). In order to obtain exponential and late-stationary phase cultures in M9-glucose, overnight cultures (16 h) were washed diluted 1:1000 in M9-glucose and grown for the desired period of time (i.e., a turbidity of 0.4 at 600 nm for exponential phase and 24 h of growth for late-stationary phase). Anaerobically grown cultures were maintained with ˜20% CO2, ˜79% N2, and ˜1% H2. In order to obtain rifampicin-induced persister cultures in buffered LB, overnight cultures (16 h) were diluted 1:1000 in fresh medium and grown to a turbidity of 0.8 at 600 nm. Cultures were exposed to rifampicin (100 μg/mL) for 30 min, centrifuged, and resuspended in fresh medium to remove the rifampicin.

For assay [8], the system named is E. coli K-12. The assay can be described thus: Planktonic antibiotic killing assay. It counts as cell-based, Escherichia coli. The following applies: for persistence (surviving population): late-stationary phase, MMC 10, ciprofloxacin 5, gentamicin 10 μg/mL, 3 h. The method, then:
as §1

In assay [9] the test system is E. coli K-12 persister cells. The assay can be described thus: Rifampicin-induced persister cell killing assay. It is filed as cell-based, Escherichia coli. The method, then: Rifampicin-pretreatment was used to convert nearly all the E. coli exponentially-growing cells to persister cells. In brief, overnight cultures (16 h) of E. coli BW25113 were diluted 1:1000 in buffered LB and grown to a turbidity of 0.8 at 600 nm (250 mL flask, 250 rpm). Cultures were treated with rifampicin (100 μg/mL) for 30 min (250 mL flask, 250 rpm), centrifuged, and resuspended in fresh medium to remove the rifampicin. A 1 mL culture was used for a drop assay to check cell viability at 0 h. […] After 3 h, 1 mL of culture was centrifuged at 10,000 rpm for 3 min, the supernatant was discarded, the cells were resuspended in 1 mL of normal saline, and the cell suspension was serially diluted for a drop assay to check cell viability. In addition, 1 mL samples were centrifuged, and the cell pellet resuspended in 150 μL of normal saline and spread on LB agar.
To test whether lower concentrations than 500 μg/mL of cisplatin generate resistant mutants, 5 mL cultures of rifampicin-induced persister cells were treated with 200 μg/mL of cisplatin and cells were enumerated by the drop assay using LB agar, LB agar with 200 μg/mL of cisplatin (LBCP200), and LB agar with 500 μg/mL of cisplatin (LBCP500).

Assay [10] relates to S. aureus biofilm cultures. The assay can be described thus: Biofilm antibiotic killing assay. It is filed as cell-based, Staphylococcus aureus. To be noted: minimal medium (modified M9-glucose), 24 h treatment, MMC 10 μg/mL, ciprofloxacin 5 μg/mL.
Assay [11] concerns S. aureus (methicillin sensitive). The assay can be described thus: Planktonic antibiotic killing assay. It counts as cell-based, Staphylococcus aureus. The following applies: rich medium (TSB), MMC 10 μg/mL, ciprofloxacin 5 μg/mL, 3 h. The protocol:
as §1

For assay [12], the system named is EHEC biofilm cultures. The following applies: M9-glucose, 24 h treatment, MMC 10 μg/mL, ciprofloxacin 5 μg/mL.

For the compound `CC1(C)S[C@@H]2[C@H](NC(=O)[C@H](N)c3ccccc3)C(=O)N2[C@H]1C(=O)O` [ampicillin], the “resistant colonies on antibiotic agar” value in [1] (LBCipro5 or LBAmp100 agar) is “no colonies were detected”. For the same compound, the survival rate in [1] (round 1) is on record as 0.001±0.001%; in assay [1] (round 2), 0.0001±0.0000%; in assay [1] (round 3), 0.0001±0.0000%. Moreover, the MIC in assay [2] came to 10 µg/mL (≈ 28.6 µM). Moreover, the “survival of the EHEC-infected worms” value in [3] is “enhanced the survival”.
For `O=NN(CCCl)C(=O)NCCCl` [carmustine], the antimicrobial activity result in [4] (100 μg/mL) was “only cisplatin exhibited antimicrobial activity”.
For the compound `O=C(O)c1cn(C2CC2)c2cc(N3CCNCC3)c(F)cc2c1=O` [ciprofloxacin], the “time course dependent killing” value in assay [5] is given as “had little activity”. In addition, the “survival of the culturable population” value in [6] was 0.40±0.05%. Moreover, the values for the survival rate in [1] (round 1), in assay [1] (round 2) and in assay [1] (round 3) were 0.045±0.008%, 0.03±0.01% and 0.012±0.002%, respectively. In addition, the cells survived in [7] is given as 1.2±0.1%. For the same compound, the survival amounted to 0.44±0.08% in assay [8] (anaerobic, late-stationary phase cells in rich medium (LB)); 18±2% in assay [10]; 0.55±0.04% in [11] (exponential phase); 2.2±0.1% in assay [11] (mid-stationary phase). The “susceptibility of exponential-phase cultures” value in assay [8] (exponential phase, M9-glucose) is given as “similarly susceptible”. Moreover, the “persistence (surviving population)” value in assay [8] (M9-glucose) is listed as 10±1%. Besides, the “surviving fraction of persister cells” value in assay [9] amounted to 9±1%. Moreover, the MIC in assay [2] came out at 0.05 µg/mL (≈ 0.151 µM). For the same compound, in assay [3], the “survival of the EHEC-infected worms” value is recorded as “enhanced the survival”. In addition, the cells surviving in [12] turned out to be 3±1%.
Regarding `O=P1(N(CCCl)CCCl)NCCCO1` (centres unmarked) [cyclophosphamide], in assay [4] (100 μg/mL), the antimicrobial activity entry is “only cisplatin exhibited antimicrobial activity”.
On to `Nc1n[n+]([O-])c2ccccc2[n+]1[O-]` [tirapazamine], for which the antimicrobial activity result in assay [4] (10 μg/mL) is given as “only cisplatin exhibited antimicrobial activity”.
Consider `N[C@@H](Cc1ccc(N(CCCl)CCCl)cc1)C(=O)O` [melphalan], for which, in assay [4] (100 μg/mL), the antimicrobial activity entry is reported as “only cisplatin exhibited antimicrobial activity”.
Same read-out and setting: the result for `CS(=O)(=O)OCCCCOS(C)(=O)=O` [busulfan] reads “only cisplatin exhibited antimicrobial activity”.
For the compound `COC1=C(C(=O)O)[C@H](C)[C@@]23O[C@]24c2cc(O)c5c(c2N[C@H]3C#C/C=C\C#C[C@H]14)C(=O)c1c(O)ccc(O)c1C5=O` [dynemicin A], the antimicrobial activity entry in [4] is given as “only cisplatin exhibited antimicrobial activity”.
For the compound gentamicin, the “persistence (surviving population)” value in [8] (M9-glucose) was determined as 44±5%.

What is called MIC is the least concentration at which growth counts as inhibited.
